For 30 compounds, TGI results are on record in PubChem BioAssay (NCI).

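1) Cells in 96-well plates. 2) Compound, 48 h, 5 concentrations. 3) Linear interpolation between surrounding doses. 4) Unreached endpoint = highest concentration. TGI marks complete inhibition of growth.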

The test system of the first test is OVCAR-8 ovarian. Briefly: NCI anticancer screen, dose series, 48 h.
As for `CCCCCCCCCCCOc1ccc(C(=O)C(=O)c2ccc(OCCCCCCCCCCC)c(OCCCCCCCCCCC)c2)cc1OCCCCCCCCCCC`, the TGI is > 100 µM.
Still for that read-out and setting: the same measure for `CC(N)Cc1ccc(C(=O)Cl)cc1` (centres undefined): > 100 µM; for `Cc1cn(C2CC(N(O)C(N)=O)C(CO)O2)c(=O)[nH]c1=O` (centres undefined): > 100 µM; for `COc1nc(N)c(C(=O)CCl)c(=O)n1C`: 52.8 µM.
For `CC1C=C(CCCCCCCCCCCC[C@@H](O)[C@@H]2CC[C@@H]([C@@H]3CC[C@@H](C(O)CCCCCCCCCCCCC4=C[C@H](C)OC4=O)O3)O2)C(=O)O1` (some centres undefined), the TGI is > 100 µM.
Still for that read-out and setting: in the case of `O=C1c2ccccc2C2C1N2C(=O)C(F)(F)F` (centres undefined) it was > 100 µM.
`CC(=O)NC1=C(NCCC(C)C)C(=O)c2ccccc2C1=O`: the TGI was > 50 µM.
As to `O=C(Cc1cccs1)N[C@@H]1C(=O)N2C(C(=O)OC(c3ccccc3)c3ccccc3)=C(CO)CS[C@H]12`, the TGI is > 100 µM.
Same read-out and setting: in the case of `COc1ccc2c(=O)c(O)c(-c3ccc(OC)c(OC)c3)oc2c1` it was > 100 µM; in that of `CC(=O)NNc1nc(C)c(C(=O)NNC(=O)C(=O)Nc2c(Cl)cc([N+](=O)[O-])cc2Cl)s1`, > 100 µM; in that of `Nc1cccc2cc(Cl)cnc12`, > 100 µM.
The same measure, in the same setting: the same measure for `CCOC(=O)C1=C(C)NC(=S)NC1c1ccccc1` (centres undefined): > 100 µM; for `N.N.N.N.O=[N+]([O-])[O-].[Co+3].[N-]=[N+]=[N-].[N-]=[N+]=[N-]`: > 100 µM.
Same read-out and setting: the same measure for `COC(=O)[C@H](Cc1c[nH]c2ccccc12)NP(=O)(O)OCC1C=CC(n2cc(C)c(=O)[nH]c2=O)O1` (some centres undefined): > 100 µM.
The compound `CCC12C=CCN3CCC4(C(=C(C(=O)OC)[C@@H]1O)Nc1ccccc14)C32` (some centres undefined) came in with a TGI of 5.33 µM.
The same measure, in the same setting: in the case of `CC(=O)Nc1ccc(-c2nnc(SCC(=O)Nc3ccc([N+](=O)[O-])cc3)o2)cc1` it was 29.9 µM.

The subject of another test is IGROV1 ovarian. In words: NCI anticancer screen, dose series, 48 h.
With `COc1cc([C@@H]2OCC3C(c4ccc5c(c4)OCO5)OCC32)cc(OC)c1OC` (some centres undefined), the TGI was > 100 µM.
Consider `O=C1CCC23CC(C=CC=C12)n1c(=O)n(-c2ccccc2)c(=O)n13` (centres undefined), for which the TGI was > 100 µM.
As for `C[C@]12CC[C@H](O)CC1=CC[C@@H]1C2CC[C@]2(C)C(=O)N(N)C(=O)CC12` (some centres undefined), the TGI was > 100 µM.
For `O=c1[nH][nH]c(=O)n1Cc1ccccc1Cn1c(=O)[nH][nH]c1=O`, the TGI is > 100 µM.
On to `O=C(NNC(=O)c1ccccc1SSc1ccccc1C(=O)NNC(=O)c1ccccc1S)c1ccccc1S`, for which the TGI was > 100 µM.
On to `Cc1ccccc1-n1c(=O)c2ncn(CCCl)c2n(-c2ccccc2C)c1=S`, for which the TGI is > 100 µM.
Same read-out and setting: the same measure for `N#CN=C(N(Cc1ccccc1)Cc1ccccc1)N(Cc1ccccc1)Cc1ccccc1`: > 100 µM.
On to `[N-]=[N+]=Nc1cc(=O)oc2ccccc12`, for which the TGI was > 100 µM.
Still for that read-out and setting: in the case of `CNC(=O)C(C)C1CCC2(C)C=CC(=O)C(C)=C2C1O` (centres undefined) it was > 100 µM; in that of `Cc1cccc2c(=O)cc(-c3ccccc3)[nH]c12`, > 100 µM; in that of `CCCN=C1CCN(Cc2ccccc2)c2ccccc2N1`, 19.5 µM.
Same read-out and setting: in the case of `CCN(CC)CCC(=O)Nc1ccc2c(c1)C(=O)c1ccc(NC(=O)CCN(CC)CC)cc1C2=O` it was 12 µM; in that of `Oc1ccc(-c2nc(-c3cccnc3)c(-c3ccc(F)cc3)[nH]2)cc1`, 33.8 µM; in that of `CC(C)CCCCCCCCCCCCC(=O)NCC(=O)NC1C(C)OC(Nc2ncnc3c2ncn3C)C(O)C1O` (centres undefined), > 100 µM.
In the case of `CCCCCCCCCCCOc1ccc(C(=O)C(=O)c2ccc(OCCCCCCCCCCC)c(OCCCCCCCCCCC)c2)cc1OCCCCCCCCCCC`, the TGI is > 100 µM.
Consider `CC(N)Cc1ccc(C(=O)Cl)cc1` (centres undefined), for which the TGI is > 100 µM.
The same measure, in the same setting: in the case of `COc1nc(N)c(C(=O)CCl)c(=O)n1C` it was 30.2 µM; in that of `CC1C=C(CCCCCCCCCCCC[C@@H](O)[C@@H]2CC[C@@H]([C@@H]3CC[C@@H](C(O)CCCCCCCCCCCCC4=C[C@H](C)OC4=O)O3)O2)C(=O)O1` (some centres undefined), > 100 µM; in that of `O=C1c2ccccc2C2C1N2C(=O)C(F)(F)F` (centres undefined), > 100 µM.
Still for that read-out and setting: the same measure for `CC(=O)NC1=C(NCCC(C)C)C(=O)c2ccccc2C1=O`: > 50 µM.
Same read-out and setting: in the case of `O=C(Cc1cccs1)N[C@@H]1C(=O)N2C(C(=O)OC(c3ccccc3)c3ccccc3)=C(CO)CS[C@H]12` it was > 100 µM; in that of `COc1ccc2c(=O)c(O)c(-c3ccc(OC)c(OC)c3)oc2c1`, > 100 µM; in that of `CC(=O)NNc1nc(C)c(C(=O)NNC(=O)C(=O)Nc2c(Cl)cc([N+](=O)[O-])cc2Cl)s1`, > 100 µM.
For `Nc1cccc2cc(Cl)cnc12`, the TGI is > 100 µM.
Take `CCOC(=O)C1=C(C)NC(=S)NC1c1ccccc1` (centres undefined): the TGI was > 100 µM.
For the compound `N.N.N.N.O=[N+]([O-])[O-].[Co+3].[N-]=[N+]=[N-].[N-]=[N+]=[N-]`, the TGI was > 100 µM.
Same read-out and setting: in the case of `COC(=O)[C@H](Cc1c[nH]c2ccccc12)NP(=O)(O)OCC1C=CC(n2cc(C)c(=O)[nH]c2=O)O1` (some centres undefined) it was > 100 µM; in that of `CCC12C=CCN3CCC4(C(=C(C(=O)OC)[C@@H]1O)Nc1ccccc14)C32` (some centres undefined), 3.9 µM.
Still for that read-out and setting: the same measure for `CC(=O)Nc1ccc(-c2nnc(SCC(=O)Nc3ccc([N+](=O)[O-])cc3)o2)cc1`: 23.4 µM.

In a further test the test system is A498 renal. In words: NCI anticancer screen, dose series, 48 h.
With `COc1cc([C@@H]2OCC3C(c4ccc5c(c4)OCO5)OCC32)cc(OC)c1OC` (some centres undefined), the TGI is > 100 µM.
The same measure, in the same setting: the same measure for `O=C1CCC23CC(C=CC=C12)n1c(=O)n(-c2ccccc2)c(=O)n13` (centres undefined): > 100 µM; for `C[C@]12CC[C@H](O)CC1=CC[C@@H]1C2CC[C@]2(C)C(=O)N(N)C(=O)CC12` (some centres undefined): > 100 µM; for `O=c1[nH][nH]c(=O)n1Cc1ccccc1Cn1c(=O)[nH][nH]c1=O`: > 100 µM.
Regarding `Cc1ccccc1-n1c(=O)c2ncn(CCCl)c2n(-c2ccccc2C)c1=S`, the TGI is > 100 µM.
As to `N#CN=C(N(Cc1ccccc1)Cc1ccccc1)N(Cc1ccccc1)Cc1ccccc1`, the TGI was > 100 µM.
Same read-out and setting: in the case of `CNC(=O)C(C)C1CCC2(C)C=CC(=O)C(C)=C2C1O` (centres undefined) it was > 100 µM; in that of `Cc1cccc2c(=O)cc(-c3ccccc3)[nH]c12`, 36 µM; in that of `CCCN=C1CCN(Cc2ccccc2)c2ccccc2N1`, 25.4 µM.
Still for that read-out and setting: the same measure for `CCN(CC)CCC(=O)Nc1ccc2c(c1)C(=O)c1ccc(NC(=O)CCN(CC)CC)cc1C2=O`: 17.8 µM; for `CC(C)CCCCCCCCCCCCC(=O)NCC(=O)NC1C(C)OC(Nc2ncnc3c2ncn3C)C(O)C1O` (centres undefined): 24.2 µM.
On the same count and under the same terms, in the case of `CCCCCCCCCCCOc1ccc(C(=O)C(=O)c2ccc(OCCCCCCCCCCC)c(OCCCCCCCCCCC)c2)cc1OCCCCCCCCCCC` it was > 100 µM; in that of `CC(N)Cc1ccc(C(=O)Cl)cc1` (centres undefined), > 100 µM.
Take `Cc1cn(C2CC(N(O)C(N)=O)C(CO)O2)c(=O)[nH]c1=O` (centres undefined): the TGI was > 100 µM.
Regarding `COc1nc(N)c(C(=O)CCl)c(=O)n1C`, the TGI turned out to be 32.4 µM.
On to `CC1C=C(CCCCCCCCCCCC[C@@H](O)[C@@H]2CC[C@@H]([C@@H]3CC[C@@H](C(O)CCCCCCCCCCCCC4=C[C@H](C)OC4=O)O3)O2)C(=O)O1` (some centres undefined), for which the TGI was > 100 µM.
Same read-out and setting: the same measure for `O=C1c2ccccc2C2C1N2C(=O)C(F)(F)F` (centres undefined): > 100 µM; for `O=C(Cc1cccs1)N[C@@H]1C(=O)N2C(C(=O)OC(c3ccccc3)c3ccccc3)=C(CO)CS[C@H]12`: > 100 µM; for `COc1ccc2c(=O)c(O)c(-c3ccc(OC)c(OC)c3)oc2c1`: > 100 µM.
